According to EP4745135A1 (Gluetacs Therapeutics (Shanghai) Co., Ltd., priority 2023, dated 2025):

Assays:
[1] = target: T1, CK1α (Homo sapiens, UniProt P48729+Q96SW2); assay: Western blot, degradation of substrate protein in hPBMCs; type: cell-based; conditions: Western blot, 24 hours of compound treatment, compounds tested at 50 nM and 500 nM (concentration for the table not stated)
T1 construct: effects of the compounds of the present disclosure on the expression of target proteins in cells; endogenous in cells; host or cells: human PBMCs (Milecell Biotechnologies)
T1 sequence (P48729 whole entry): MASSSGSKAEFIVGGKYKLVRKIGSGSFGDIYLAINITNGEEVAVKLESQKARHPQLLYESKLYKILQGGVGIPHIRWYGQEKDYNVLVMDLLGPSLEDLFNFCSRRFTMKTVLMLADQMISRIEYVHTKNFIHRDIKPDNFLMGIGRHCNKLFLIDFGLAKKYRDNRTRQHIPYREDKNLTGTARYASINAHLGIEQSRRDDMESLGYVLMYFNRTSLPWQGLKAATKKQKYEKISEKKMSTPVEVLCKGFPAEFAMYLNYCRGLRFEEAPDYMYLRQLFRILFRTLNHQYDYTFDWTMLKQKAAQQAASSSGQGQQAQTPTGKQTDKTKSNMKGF
T1 sequence (Q96SW2 whole entry): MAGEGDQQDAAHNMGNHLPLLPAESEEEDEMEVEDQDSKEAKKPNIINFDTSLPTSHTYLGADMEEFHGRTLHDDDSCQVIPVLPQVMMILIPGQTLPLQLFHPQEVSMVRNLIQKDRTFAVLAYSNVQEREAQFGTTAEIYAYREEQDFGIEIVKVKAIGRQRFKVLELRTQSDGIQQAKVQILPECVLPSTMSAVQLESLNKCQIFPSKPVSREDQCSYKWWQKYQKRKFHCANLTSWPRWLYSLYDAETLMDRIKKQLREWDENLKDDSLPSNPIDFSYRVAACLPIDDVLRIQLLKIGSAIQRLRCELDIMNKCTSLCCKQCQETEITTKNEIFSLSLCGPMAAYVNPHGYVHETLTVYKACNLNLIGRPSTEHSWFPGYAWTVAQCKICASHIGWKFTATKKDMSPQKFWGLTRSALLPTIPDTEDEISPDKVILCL
T1 sequence (Q16531 whole entry partner): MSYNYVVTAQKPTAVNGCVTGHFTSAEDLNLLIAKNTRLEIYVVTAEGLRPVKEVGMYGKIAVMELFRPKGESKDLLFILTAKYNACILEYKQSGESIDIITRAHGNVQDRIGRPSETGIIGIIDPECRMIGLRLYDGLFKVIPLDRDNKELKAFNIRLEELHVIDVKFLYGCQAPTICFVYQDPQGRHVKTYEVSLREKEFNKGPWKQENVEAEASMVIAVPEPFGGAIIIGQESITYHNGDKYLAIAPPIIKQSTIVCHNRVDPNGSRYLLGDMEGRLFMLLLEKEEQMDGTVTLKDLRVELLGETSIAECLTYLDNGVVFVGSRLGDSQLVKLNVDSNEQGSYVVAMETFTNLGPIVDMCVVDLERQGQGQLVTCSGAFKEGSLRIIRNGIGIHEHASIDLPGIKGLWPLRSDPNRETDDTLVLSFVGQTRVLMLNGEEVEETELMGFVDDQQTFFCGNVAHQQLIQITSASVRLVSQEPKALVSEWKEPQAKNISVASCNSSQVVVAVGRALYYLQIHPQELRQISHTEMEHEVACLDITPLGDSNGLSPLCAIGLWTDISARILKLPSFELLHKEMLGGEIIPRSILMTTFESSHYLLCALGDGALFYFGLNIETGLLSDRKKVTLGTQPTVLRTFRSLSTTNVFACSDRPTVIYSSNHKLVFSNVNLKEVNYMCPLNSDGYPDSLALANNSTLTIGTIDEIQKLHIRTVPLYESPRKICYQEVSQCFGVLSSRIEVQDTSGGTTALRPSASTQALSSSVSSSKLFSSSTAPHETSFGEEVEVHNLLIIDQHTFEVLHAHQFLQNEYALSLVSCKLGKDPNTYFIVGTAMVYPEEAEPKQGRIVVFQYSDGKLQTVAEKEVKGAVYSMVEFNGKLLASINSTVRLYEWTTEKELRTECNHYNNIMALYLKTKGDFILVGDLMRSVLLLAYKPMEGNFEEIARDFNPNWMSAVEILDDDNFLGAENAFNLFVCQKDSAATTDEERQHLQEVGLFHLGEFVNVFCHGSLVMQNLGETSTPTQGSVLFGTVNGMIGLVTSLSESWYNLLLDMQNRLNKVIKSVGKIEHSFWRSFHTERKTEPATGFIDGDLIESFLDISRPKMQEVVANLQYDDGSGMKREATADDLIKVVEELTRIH

[2] = target: T2, IKZF1 (Homo sapiens, UniProt Q13422+Q96SW2); assay: as above; type: cell-based; conditions: Western blot, 24 hours of compound treatment, compounds tested at 50 nM and 500 nM (concentration for the table not stated)
T2 construct: effects of the compounds of the present disclosure on the expression of target proteins in cells; endogenous in cells; host or cells: human PBMCs (Milecell Biotechnologies)
T2 sequence (Q13422 whole entry): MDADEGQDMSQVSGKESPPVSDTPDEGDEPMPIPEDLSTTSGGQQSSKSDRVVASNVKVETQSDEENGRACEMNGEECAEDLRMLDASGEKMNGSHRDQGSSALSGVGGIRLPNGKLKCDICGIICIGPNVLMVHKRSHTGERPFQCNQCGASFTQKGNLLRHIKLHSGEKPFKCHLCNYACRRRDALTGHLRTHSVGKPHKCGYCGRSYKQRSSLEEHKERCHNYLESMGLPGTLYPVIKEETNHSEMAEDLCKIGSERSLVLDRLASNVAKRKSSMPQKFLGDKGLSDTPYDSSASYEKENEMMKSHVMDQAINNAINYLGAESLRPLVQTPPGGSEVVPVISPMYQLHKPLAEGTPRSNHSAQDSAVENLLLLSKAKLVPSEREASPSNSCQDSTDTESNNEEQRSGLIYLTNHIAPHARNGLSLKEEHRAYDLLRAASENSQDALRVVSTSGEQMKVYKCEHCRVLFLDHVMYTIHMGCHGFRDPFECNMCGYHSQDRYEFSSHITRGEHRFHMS
T2 sequence (Q96SW2 whole entry): as the sequence (Q96SW2 whole entry) above
T2 sequence (Q16531 whole entry partner): as the sequence (Q16531 whole entry partner) above

[3] = target: T3, IKZF2 (Homo sapiens, UniProt Q96SW2+Q9UKS7); assay: as above; type: cell-based; conditions: Western blot, 24 hours of compound treatment, compounds tested at 50 nM and 500 nM (concentration for the table not stated)
T3 construct: effects of the compounds of the present disclosure on the expression of target proteins in cells; endogenous in cells; host or cells: human PBMCs (Milecell Biotechnologies)
T3 sequence (Q9UKS7 whole entry): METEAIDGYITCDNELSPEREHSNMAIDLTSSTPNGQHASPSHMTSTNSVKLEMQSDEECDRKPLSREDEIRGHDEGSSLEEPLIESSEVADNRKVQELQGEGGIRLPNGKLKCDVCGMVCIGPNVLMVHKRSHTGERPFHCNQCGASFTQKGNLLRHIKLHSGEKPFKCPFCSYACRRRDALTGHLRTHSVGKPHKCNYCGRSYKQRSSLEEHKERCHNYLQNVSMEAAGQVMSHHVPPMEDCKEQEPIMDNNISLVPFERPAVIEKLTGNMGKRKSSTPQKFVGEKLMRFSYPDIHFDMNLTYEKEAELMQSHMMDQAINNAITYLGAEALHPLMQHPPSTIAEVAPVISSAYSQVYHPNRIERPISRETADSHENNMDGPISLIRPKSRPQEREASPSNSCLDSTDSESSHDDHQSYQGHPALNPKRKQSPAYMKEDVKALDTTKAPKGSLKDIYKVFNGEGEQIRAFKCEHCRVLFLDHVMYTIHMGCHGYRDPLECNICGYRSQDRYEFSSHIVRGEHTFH
T3 sequence (Q96SW2 whole entry): as the sequence (Q96SW2 whole entry) above
T3 sequence (Q16531 whole entry partner): as the sequence (Q16531 whole entry partner) above

[4] = target: T4, IKZF3 (Homo sapiens, UniProt Q96SW2+Q9UKT9); assay: as above; type: cell-based; conditions: Western blot, 24 hours of compound treatment, compounds tested at 50 nM and 500 nM (concentration for the table not stated)
T4 construct: effects of the compounds of the present disclosure on the expression of target proteins in cells; endogenous in cells; host or cells: human PBMCs (Milecell Biotechnologies)
T4 sequence (Q9UKT9 whole entry): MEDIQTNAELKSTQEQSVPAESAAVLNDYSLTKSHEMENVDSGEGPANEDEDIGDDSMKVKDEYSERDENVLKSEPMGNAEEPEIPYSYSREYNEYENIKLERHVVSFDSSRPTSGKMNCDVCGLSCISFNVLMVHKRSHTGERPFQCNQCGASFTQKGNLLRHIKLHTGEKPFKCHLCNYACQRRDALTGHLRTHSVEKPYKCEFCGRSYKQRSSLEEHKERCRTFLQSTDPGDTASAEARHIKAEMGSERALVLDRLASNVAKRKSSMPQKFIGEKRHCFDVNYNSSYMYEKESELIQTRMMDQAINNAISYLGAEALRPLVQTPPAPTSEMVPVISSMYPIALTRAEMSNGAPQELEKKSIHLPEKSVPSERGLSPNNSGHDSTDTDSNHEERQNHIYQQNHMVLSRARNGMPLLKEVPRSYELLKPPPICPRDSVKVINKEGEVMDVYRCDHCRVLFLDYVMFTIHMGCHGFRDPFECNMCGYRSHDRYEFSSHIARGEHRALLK
T4 sequence (Q96SW2 whole entry): as the sequence (Q96SW2 whole entry) above
T4 sequence (Q16531 whole entry partner): as the sequence (Q16531 whole entry partner) above

[5] = target: T5, WEE1 (Homo sapiens, UniProt P30291+Q96SW2); assay: as above; type: cell-based; conditions: Western blot, 24 hours of compound treatment, compounds tested at 50 nM and 500 nM (concentration for the table not stated)
T5 construct: effects of the compounds of the present disclosure on the expression of target proteins in cells; endogenous in cells; host or cells: human PBMCs (Milecell Biotechnologies)
T5 sequence (P30291 whole entry): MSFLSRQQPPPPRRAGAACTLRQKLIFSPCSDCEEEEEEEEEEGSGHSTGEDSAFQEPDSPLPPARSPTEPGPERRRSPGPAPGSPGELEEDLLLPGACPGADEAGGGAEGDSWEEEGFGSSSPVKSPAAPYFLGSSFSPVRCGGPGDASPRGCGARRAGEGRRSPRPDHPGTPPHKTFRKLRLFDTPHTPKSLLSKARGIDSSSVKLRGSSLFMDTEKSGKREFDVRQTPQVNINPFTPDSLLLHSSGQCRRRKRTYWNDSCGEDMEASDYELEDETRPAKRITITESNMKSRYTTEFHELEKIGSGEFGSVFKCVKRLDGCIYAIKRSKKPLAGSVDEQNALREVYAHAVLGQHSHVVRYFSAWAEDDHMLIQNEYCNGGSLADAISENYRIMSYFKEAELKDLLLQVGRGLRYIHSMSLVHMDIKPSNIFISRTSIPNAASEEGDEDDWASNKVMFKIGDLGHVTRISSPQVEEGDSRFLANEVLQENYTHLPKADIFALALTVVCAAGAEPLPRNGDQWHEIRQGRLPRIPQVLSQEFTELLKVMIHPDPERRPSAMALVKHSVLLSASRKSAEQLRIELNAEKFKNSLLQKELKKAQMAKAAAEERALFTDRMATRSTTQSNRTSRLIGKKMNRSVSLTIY
T5 sequence (Q96SW2 whole entry): as the sequence (Q96SW2 whole entry) above
T5 sequence (Q16531 whole entry partner): as the sequence (Q16531 whole entry partner) above

[6] = system: GSPT1; assay: as above; type: cell-based, Human; conditions: Western blot, 24 hours of compound treatment, compounds tested at 50 nM and 500 nM (concentration for the table not stated)
[7] = target: T6, human Cereblon WT GST-tagged protein (Homo sapiens, UniProt Q96SW2); assay: CRBN-binding affinity, HTRF (CEREBLON BINDING kit); conditions: for inhibition at 0.5 µM: read-out: Inhibition Rate at 0.5 µM (%); for inhibition at 2 µM: read-out: Inhibition Rate at 2 µM (%)
T6 construct: purchased CISBIO 64BDCRBNPEH
T6 sequence (Q96SW2 whole entry): as the sequence (Q96SW2 whole entry) above

SMILES	inhibition at 0.5 µM [7]	inhibition at 2 µM [7]	CK1α substrate protein remaining % [1]	IKZF 1 substrate protein remaining % [2]	IKZF2 substrate protein remaining % [3]	IKZF3 substrate protein remaining % [4]	Wee1 substrate protein remaining % [5]	GSPT1 substrate protein remaining % [6]
Cc1ccc(Cl)cc1N1CCN(Cc2cccc3c2CN(C2CCC(=O)NC2=O)C3=S)CC1 (stereo not drawn) [GT-08505, 3-(4-((4-(5-chloro-2-methylphenyl)piperazin-1-yl)methyl)-1-thioxoisoindolin-2-yl)piperidine-2,6-dione]	40 to 53%	60 to 80%	B (80%< substrate protein remaining %≤ 100%)	B (80%< substrate protein remaining %≤ 100%)	B (80%< substrate protein remaining %≤ 100%)	A (0% ≤ substrate protein remaining % ≤ 80%)	A (0% ≤ substrate protein remaining % ≤ 80%)	B (80%< substrate protein remaining %≤ 100%)
O=C1CCC(N2Cc3c(CN4CCC(c5cccc(Br)c5)CC4)cccc3C2=S)C(=O)N1 (stereo not drawn) [GT-08507, 3-(4-((4-(3-bromophenyl)piperidin-1-yl)methyl)-1-thioxoisoindolin-2-yl)piperidine-2,6-dione]	40 to 53%	60 to 80%	B (80%< substrate protein remaining %≤ 100%)	B (80%< substrate protein remaining %≤ 100%)	B (80%< substrate protein remaining %≤ 100%)	A (0% ≤ substrate protein remaining % ≤ 80%)	A (0% ≤ substrate protein remaining % ≤ 80%)	B (80%< substrate protein remaining %≤ 100%)
O=C1CCC(N2Cc3c(CN4CCC(c5ccc(Br)cc5)CC4)cccc3C2=S)C(=O)N1 (stereo not drawn) [GT-08592, 3-(4-((4-(4-bromophenyl)piperidin-1-yl)methyl)-1-thioxoisoindolin-2-yl)piperidine-2,6-dione]	40 to 53%	60 to 80%	B (80%< substrate protein remaining %≤ 100%)	B (80%< substrate protein remaining %≤ 100%)	B (80%< substrate protein remaining %≤ 100%)	B (80%< substrate protein remaining %≤ 100%)	A (0% ≤ substrate protein remaining % ≤ 80%)	B (80%< substrate protein remaining %≤ 100%)
O=C1CCC(N2Cc3c(CN4CCN(c5cc(F)ccc5F)CC4)cccc3C2=S)C(=O)N1 (stereo not drawn) [GT-08593, 3-(4-((4-(2,5-difluorophenyl)piperazin-1-yl)methyl)-1-thioxoisoindolin-2-yl)piperidine-2,6-dione]	40 to 53%	60 to 80%	B (80%< substrate protein remaining %≤ 100%)	B (80%< substrate protein remaining %≤ 100%)	B (80%< substrate protein remaining %≤ 100%)	B (80%< substrate protein remaining %≤ 100%)	A (0% ≤ substrate protein remaining % ≤ 80%)	B (80%< substrate protein remaining %≤ 100%)
O=C1CCC(N2Cc3c(CN4CCC(c5ccc(Cl)cc5)CC4)cccc3C2=S)C(=O)N1 (stereo not drawn) [GT-08594, 3-(4-((4-(4-chlorophenyl)piperidin-1-yl)methyl)-1-thioxoisoindolin-2-yl)piperidine-2,6-dione]	30 to 40%	53 to 60%	B (80%< substrate protein remaining %≤ 100%)	B (80%< substrate protein remaining %≤ 100%)	A (0% ≤ substrate protein remaining % ≤ 80%)	B (80%< substrate protein remaining %≤ 100%)	A (0% ≤ substrate protein remaining % ≤ 80%)	B (80%< substrate protein remaining %≤ 100%)
O=C1CCC(N2Cc3c(CN4CCC(c5ccccc5C(F)(F)F)CC4)cccc3C2=S)C(=O)N1 (stereo not drawn) [GT-08598, 3-(1-thioxo-4-((4-(2-(trifluoromethyl)phenyl)piperidin-1-yl)methyl)isoindolin-2-yl)piperidine-2,6-dione]	40 to 53%	60 to 80%	B (80%< substrate protein remaining %≤ 100%)	B (80%< substrate protein remaining %≤ 100%)	B (80%< substrate protein remaining %≤ 100%)	B (80%< substrate protein remaining %≤ 100%)	A (0% ≤ substrate protein remaining % ≤ 80%)	A (0% ≤ substrate protein remaining % ≤ 80%)
O=C1CCC(N2Cc3c(CN4CCC(c5cccc(C(F)(F)F)c5)CC4)cccc3C2=S)C(=O)N1 (stereo not drawn) [GT-08599, 3-(1-thioxo-4-((4-(3-(trifluoromethyl)phenyl)piperidin-1-yl)methyl)isoindolin-2-yl)piperidine-2,6-dione]	30 to 40%	60 to 80%	B (80%< substrate protein remaining %≤ 100%)	B (80%< substrate protein remaining %≤ 100%)	B (80%< substrate protein remaining %≤ 100%)	B (80%< substrate protein remaining %≤ 100%)	A (0% ≤ substrate protein remaining % ≤ 80%)	B (80%< substrate protein remaining %≤ 100%)

The next lines start with results.

inhibition at 0.5 µM [7]	inhibition at 2 µM [7]	SMILES	CK1α substrate protein remaining % [1]	IKZF 1 substrate protein remaining % [2]	IKZF2 substrate protein remaining % [3]	IKZF3 substrate protein remaining % [4]	Wee1 substrate protein remaining % [5]	GSPT1 substrate protein remaining % [6]
40 to 53%	80 to 100%	Cc1ccccc1N1CCN(Cc2ccc3c(c2)CN(C2CCC(=O)NC2=O)C3=S)CC1 (stereo not drawn) [GT-08601, 3-(1-thioxo-5-((4-(o-tolyl)piperazin-1-yl)methyl)isoindolin-2-yl)piperidine-2,6-dione]	B (80%< substrate protein remaining %≤ 100%)	B (80%< substrate protein remaining %≤ 100%)	B (80%< substrate protein remaining %≤ 100%)	B (80%< substrate protein remaining %≤ 100%)	B (80%< substrate protein remaining %≤ 100%)	A (0% ≤ substrate protein remaining % ≤ 80%)
30 to 40%	60 to 80%	O=C1CCC(N2Cc3cc(CN4CCN(c5ccc(Cl)cc5Cl)CC4)ccc3C2=S)C(=O)N1 (stereo not drawn) [GT-08604, 3-(5-((4-(2,4-dichlorophenyl)piperazin-1-yl)methyl)-1-thioxoisoindolin-2-yl)piperidine-2,6-dione]	B (80%< substrate protein remaining %≤ 100%)	B (80%< substrate protein remaining %≤ 100%)	B (80%< substrate protein remaining %≤ 100%)	B (80%< substrate protein remaining %≤ 100%)	B (80%< substrate protein remaining %≤ 100%)	A (0% ≤ substrate protein remaining % ≤ 80%)
60 to 80%	80 to 100%	O=C1CCC(N2Cc3cc(CN4CCN(c5ccc(F)cc5F)CC4)ccc3C2=S)C(=O)N1 (stereo not drawn) [GT-08613, 3-(5-((4-(2,4-difluorophenyl)piperazin-1-yl)methyl)-1-thioxoisoindolin-2-yl)piperidine-2,6-dione]	B (80%< substrate protein remaining %≤ 100%)	B (80%< substrate protein remaining %≤ 100%)	B (80%< substrate protein remaining %≤ 100%)	B (80%< substrate protein remaining %≤ 100%)	B (80%< substrate protein remaining %≤ 100%)	A (0% ≤ substrate protein remaining % ≤ 80%)
30 to 40%	60 to 80%	O=C1CCC(N2Cc3cc(CN4CCC(c5ccc(Br)cc5)CC4)ccc3C2=S)C(=O)N1 (stereo not drawn) [GT-08618, 3-(5-((4-(4-bromophenyl)piperidin-1-yl)methyl)-1-thioxoisoindolin-2-yl)piperidine-2,6-dione]	B (80%< substrate protein remaining %≤ 100%)	B (80%< substrate protein remaining %≤ 100%)	B (80%< substrate protein remaining %≤ 100%)	B (80%< substrate protein remaining %≤ 100%)	B (80%< substrate protein remaining %≤ 100%)	A (0% ≤ substrate protein remaining % ≤ 80%)
53 to 60%	80 to 100%	O=C1CCC(N2Cc3cc(CN4CCC(c5ccc(F)cc5)CC4)ccc3C2=S)C(=O)N1 (stereo not drawn) [GT-08621, 3-(5-((4-(4-fluorophenyl)piperidin-1-yl)methyl)-1-thioxoisoindolin-2-yl)piperidine-2,6-dione]	B (80%< substrate protein remaining %≤ 100%)	B (80%< substrate protein remaining %≤ 100%)	A (0% ≤ substrate protein remaining % ≤ 80%)	B (80%< substrate protein remaining %≤ 100%)	B (80%< substrate protein remaining %≤ 100%)	A (0% ≤ substrate protein remaining % ≤ 80%)
